# Like-named read-outs stand apart in the source and are kept apart here.
# Tests used:
# [1] = test system: multi-drug-resistant breast cancer cell line MDA-MB-231; test: Cell growth assay on MDA-MB-231 cells; format: cell-based; conditions: MDA-MB-231, breast carcinoma
# Experimental: (§1) Compositions were tested on CHOP-resistant G3 NHL cells that had been cultivated in RPMI medium for five days. Prior to assay, the cells were counted by haemocytometer and cell concentration standardized to 625,000 cells/ml. Test drugs were solubilized in 100% DMSO and then diluted to final assay concentration with 0.1M phosphate buffered saline (PBS) and a final DMSO concentration of 0.5%. Cells were added to assay plates containing the test drugs (rifabutin+148 ng/ml, 74 ng/ml, 37 ng/ml, or 0 ng/ml doxorubicin) and allowed to incubate for 96 hours at 37° C. and 5% CO2. The metabolic dye rezasurin was added to the wells of the assay plate at a final concentration of 20 μg/ml and the plates were incubated for an additional 24 hours. The plates were then read in a BMG Polarstar plate reader at wavelength (573-605) and the data plotted as OD versus increasing dilutions (i.e. decreasing total amounts) of rifabutin derivative concentration.
# (§2) In these experiments, the following cell lines were used: CHOP-resistant NHL cell line G3, CHOP-sensitive NHL cell line CRL2631, the multi-drug resistant sarcoma cell line MES-SA-Dx5; multi-drug-resistant breast cancer cell line MDA-MB-231, multi-drug resistant ovarian carcinoma cell line SK-OV3, multi-drug resistant ovarian cancer cell line NCI/ADR-RES, drug-sensitive ovarian cancer cell line OVCAR-5, and multi-drug resistant ovarian cancer cell line OVCAR-3.
# (§3) Additional cell lines used include: ovarian cancer OVCAR-8, T lymphoblastoid leukemia MOLT-4, dexamethasone-resistant multiple myeloma MM.1R, myeloid leukemia cells HL-60, osteosarcoma cells U-2 OS, and myeloma RPMI 8226.
# [2] = test system: multi-drug resistant sarcoma cell line MES-SA-Dx5; test: Cell growth assay on MES-SA-Dx5 cells; format: cell-based; conditions: MES-SA-Dx5, uterus sarcoma
# Experimental: as §1, §2, §3
# VEGF = VEGF secretion ELISA in U2-OS cells; format: cell-based; conditions: RTI-79, U2-OS cells; decrease from 998
# calcium in G3 cells = test: Calcium mobilization (Fluo-4AM, flow cytometry); format: cell-based, human
# Experimental: MDR/P-gp activity is closely associated with calcium status in the cell, so calcium modulators were tested for effects on ROS. […] Relatively Dox-sensitive lymphoma (CRL2631, 10S, WSU) and ovarian carcinoma (OVCAR8) and more Dox-resistant lymphoma (G3R,10R, WSUR) and ovarian carcinoma (ADR) were treated with 10 uM […] for 2 hrs. […] Cells were co-stained with the cell-permeable red fluorescent ROS indicator, CellROX, and cell-permeable green fluorescent calcium indicator, Fluo-4AM, and then subjected to flow cytometry to quantitate changes in ROS and calcium levels.
# (§4) All samples were analyzed at the same time in flow cytometry.
# ROS in G3 lymphoma cells = test: Intracellular ROS (CellROX, flow cytometry) in G3 cells; format: cell-based, human
# Experimental: (§5) Cells were then stained with the fluorescent ROS indicator, CellROX, and subjected to flow cytometry to quantitate total intracellular ROS.
# The electron transport chain (ETC) is known to be a primary generator of ROS in the cell. Most of the ROS is generated by Complexes I and III of the ETC Inhibition of Complex I results in electrons piling up and leaking to react with oxygen to produce ROS.
# as §4
# lymphoma cell line G3 = test: Cell growth assay (resazurin fluorescence) on CHOP-resistant G3 NHL cells; format: cell-based, human
# Experimental: as §1
# [3] = test system: multi-drug resistant ovarian carcinoma cell line SK-OV3; test: Cell growth assay on SK-OV3 cells; format: cell-based, human; conditions: for IC50: Homo sapiens, SK-OV-3
# Experimental: as §1
# as §2, with “OVCAR-3. […]” for “OVCAR-3.”
# [4] = test system: multi-drug resistant ovarian cancer cell line (NCI/ADR-RES); test: NCI/ADR-RES xenograft efficacy studies in nude mice; format: in vivo; conditions: DOXIL 7 mg/kg i.v. + RTI-79 25 mg/kg oral
# From the text: In a sixth efficacy study, we generated xenografts of multi-drug resistant ovarian cancer cell line (NCI/ADR-RES) by implantation of NCI/ADR-RES cell xenografts in the left and right flanks of nude mice, resulting in two tumors per mice. […] Tumor size was monitored.
# In a seventh efficacy study, we generated xenografts of multi-drug resistant ovarian cancer cell line (NCI/ADR-RES) by implantation of NCI/ADR-RES cells xenografts in the left and right flanks of nude mice, resulting in two tumors per mouse. […] Tumor size was monitored.
# [5] = Time to maximal RTI-79 plasma concentration; format: in vivo; conditions: after administration
# [6] = test system: multi-drug resistant ovarian cancer cell line NCI/ADR-RES; test: Cell growth assay on NCI/ADR-RES cells; format: cell-based; conditions: NCI/ADR-RES, ovarian carcinoma
# Experimental: as §1, §2, §3
# [7] = test system: ROS in ADR-RES ovarian cells; test: Intracellular ROS (CellROX, flow cytometry) in ADR-RES cells; format: cell-based; conditions: 10 uM, 2 hrs
# From the text: as §5
# [8] = mice treated with RTI-79 with or without DOX
# Experimental: Swiss mice were dosed with levels equal to and exceeding that of intended doses.
# ABCB1 pumps = ABCB1 pumps (Homo sapiens, UniProt P08183)
# Chain of ABCB1 pumps (P08183 whole entry): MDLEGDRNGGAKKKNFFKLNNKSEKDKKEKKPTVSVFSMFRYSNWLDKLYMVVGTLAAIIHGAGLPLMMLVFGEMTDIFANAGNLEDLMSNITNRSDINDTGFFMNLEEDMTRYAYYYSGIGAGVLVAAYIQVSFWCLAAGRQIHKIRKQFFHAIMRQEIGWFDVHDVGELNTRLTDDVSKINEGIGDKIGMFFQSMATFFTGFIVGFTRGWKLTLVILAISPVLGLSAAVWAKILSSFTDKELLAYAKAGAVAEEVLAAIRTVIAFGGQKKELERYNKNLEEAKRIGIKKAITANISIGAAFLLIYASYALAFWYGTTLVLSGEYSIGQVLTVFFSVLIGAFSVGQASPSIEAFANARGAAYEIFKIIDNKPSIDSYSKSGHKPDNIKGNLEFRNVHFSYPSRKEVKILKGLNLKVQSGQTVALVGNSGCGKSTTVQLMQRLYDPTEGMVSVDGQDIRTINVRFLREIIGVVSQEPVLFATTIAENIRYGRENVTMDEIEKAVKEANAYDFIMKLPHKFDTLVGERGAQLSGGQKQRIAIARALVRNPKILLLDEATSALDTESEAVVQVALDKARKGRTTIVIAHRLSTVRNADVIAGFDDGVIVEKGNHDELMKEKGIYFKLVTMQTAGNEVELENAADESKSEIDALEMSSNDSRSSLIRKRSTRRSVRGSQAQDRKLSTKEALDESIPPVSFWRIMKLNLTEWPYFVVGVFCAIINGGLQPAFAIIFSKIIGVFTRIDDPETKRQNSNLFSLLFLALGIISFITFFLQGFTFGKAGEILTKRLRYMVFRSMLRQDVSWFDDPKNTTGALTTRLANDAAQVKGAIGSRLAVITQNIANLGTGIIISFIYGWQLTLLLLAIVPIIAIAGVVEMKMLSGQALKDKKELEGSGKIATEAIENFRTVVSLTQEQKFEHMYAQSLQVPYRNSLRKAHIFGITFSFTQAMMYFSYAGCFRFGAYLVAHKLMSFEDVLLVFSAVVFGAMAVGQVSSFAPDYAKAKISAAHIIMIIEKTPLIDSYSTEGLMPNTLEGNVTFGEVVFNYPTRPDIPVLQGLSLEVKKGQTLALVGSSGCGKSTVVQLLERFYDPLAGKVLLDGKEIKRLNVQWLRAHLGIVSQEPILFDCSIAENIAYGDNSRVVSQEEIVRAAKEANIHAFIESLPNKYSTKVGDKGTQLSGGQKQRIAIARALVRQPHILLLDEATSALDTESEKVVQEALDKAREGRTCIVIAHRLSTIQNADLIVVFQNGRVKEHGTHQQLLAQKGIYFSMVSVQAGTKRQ
# [9] = test system: ROS in OVCAR8 ovarian cells; test: Intracellular ROS (CellROX, flow cytometry) in OVCAR8 cells; format: cell-based; conditions: 10 uM, 2 hrs, degree much less than in resistant lines
# From the text: as §5
# MMP2 = MMP2 secretion ELISA in U2-OS cells; format: cell-based; conditions: 5 uM RTI-79, U2-OS cells; reduced from 22.4
# [10] = test system: multi-drug resistant ovarian cancer cell line OVCAR-3; test: Cell growth assay on OVCAR-3 cells; format: cell-based; conditions: OVCAR-3, ovarian carcinoma
# Experimental: as §1
# as §2, with “OVCAR-3. […]” for “OVCAR-3.”
# [11] = test system: primary human fibroblasts; conditions: with and without 2 uM Dox
# [12] = test system: drug-sensitive ovarian cancer cell line OVCAR-5; test: Cell growth assay on OVCAR-5 cells; format: cell-based; conditions: OVCAR-5, ovarian carcinoma
# Experimental: as §1, §2, §3
# ovarian cancer OVCAR-8 = test: Cell growth assay on OVCAR-8 cells; format: cell-based; conditions: for IC50: Homo sapiens
# Experimental: as §1, §3
# [13] = test system: osteosarcoma cells U-2 OS; test: Cell growth assay on U-2 OS cells; format: cell-based; conditions: for IC50: Homo sapiens, U2OS
# Experimental: as §1, §3
# [14] = test system: myeloid leukemia cells HL-60; test: Cell growth assay on HL-60 cells; format: cell-based; conditions: for IC50: Homo sapiens
# Experimental: as §1, §3
# myeloma RPMI 8226 = test: Cell growth assay on RPMI 8226 cells; format: cell-based; conditions: for IC50: Homo sapiens
# Experimental: as §1, §3
# [15] = therapeutic drug alone, read-out: IC50
# [16] = therapeutic drug with Rifabutin, read-out: IC50 (μM) with Rifabutin
smiles,measurement,setting,value
"COC1C=COC2(C)Oc3c(C)c(O)c4c(c3C2=O)C2=NC3(CCN(C(=O)OCC(C)C)CC3)NC2=C(NC(=O)C(C)=CC=CC(C)C(O)C(C)C(O)C(C)C(OC(C)=O)C1C)C4=O (stereo not shown) [RTI-79, 4-deoxy-3,4[2-spiro-[1-(isobutyloxycarbonyl)-piperidin-4-yl]]-(1H)-imidazo-(2,5-dihydro)rifamycin S]",Magnitude of potentiation in combination with doxorubicin,[1],+ (potentiation between 1.2 to 2.0 fold increase)
same,Magnitude of potentiation in combination with doxorubicin,[2],++ (potentiation between 2.1 to 5 fold increase)
same,VEGF secretion,VEGF,436 pg/million cells
same,calcium mobilization,"calcium in G3 cells; Dox-resistant cells (G3R, 10R, WSUR), 10 uM, 2 hrs, FIG. 41B/41C",induced both ROS and calcium mobilization
same,onset of calcium mobilization,"calcium in G3 cells; G3 cells, 10 uM RTI-79, 0 to 30 minutes",> 15 min
same,time to first increase in ROS,"ROS in G3 lymphoma cells; 10 uM RTI-79, 0 to 30 minutes",1 min
same,total intracellular ROS,"ROS in G3 lymphoma cells; 10 uM, 2 hrs",induced ROS
same,Magnitude of potentiation in combination with doxorubicin,"lymphoma cell line G3; G3, lymphoma B cells",++ (potentiation between 2.1 to 5 fold increase)
same,IC50,"lymphoma cell line G3; analog alone, lymphoma cell line G3, read-out: IC50",43 µM
same,IC50,"lymphoma cell line G3; with 1 μM doxorubicin, lymphoma cell line G3, read-out: IC50 (μM) with doxorubicin (1 μM)",1.14 µM
same,Magnitude of potentiation in combination with doxorubicin,"[3]; SK-OV3, ovarian carcinoma",+++ (potentiation greater than 5 fold increase)
same,tumor volume lower than in mice receiving only DOXIL,"[4]; seventh study (multiple, large tumors), after 46 days",55%
same,tumor volume reduction during the course of the study,[4]; seventh study,50%
same,tumor volume lower than in mice receiving only DOXIL,"[4]; sixth study, after 41 days",66%
same,time to maximal plasma concentration,[5],≤ 3 h
same,Magnitude of potentiation in combination with doxorubicin,[6],++ (potentiation between 2.1 to 5 fold increase)
same,total intracellular ROS,[7],induced ROS
same,"heart histology (H&E), complete blood count and manual differential",[8],no significant differences
same,inhibition of efflux pumps,ABCB1 pumps; NCI/ADR-RES and G3 cells,clear inhibition of efflux pumps
same,rank as inhibitor of ABCB1 among rifabutin derivatives,ABCB1 pumps; calcein-AM efflux,strongest inhibitor
same,total intracellular ROS,[9],induced ROS
same,MMP2 secretion,MMP2,10.5 ng/million cells
same,Magnitude of potentiation in combination with doxorubicin,[10],+ (potentiation between 1.2 to 2.0 fold increase)
same,comparative cytotoxicity to normal cells,[11],not toxic to normal cells
same,Magnitude of potentiation in combination with doxorubicin,[12],+ (potentiation between 1.2 to 2.0 fold increase)
"O=C1c2c(O)ccc(O)c2C(=O)c2c(NCCNCCO)ccc(NCCNCCO)c21 [Mitoxantrone, mitoxantrone]",IC50,ovarian cancer OVCAR-8; [15],14 µM
same,IC50,ovarian cancer OVCAR-8; [16],3 µM
same,Fold increase in potency,ovarian cancer OVCAR-8; with vs without Rifabutin,4.7 fold
same,IC50,[13]; [15],0.14 µM
same,IC50,[13]; [16],0.06 µM
same,Fold increase in potency,[13]; with vs without Rifabutin,2.3 fold
same,IC50,"lymphoma cell line G3; Homo sapiens, therapeutic drug alone, G3, read-out: IC50",0.46 µM
same,IC50,"lymphoma cell line G3; Homo sapiens, therapeutic drug with Rifabutin, G3, read-out: IC50 (μM) with Rifabutin",0.04 µM
same,Fold increase in potency,"lymphoma cell line G3; with vs without Rifabutin, G3",11.5 fold
same,IC50,"[3]; therapeutic drug alone, SK-OV3, read-out: IC50",> 32 µM
same,IC50,"[3]; therapeutic drug with Rifabutin, SK-OV3, read-out: IC50 (μM) with Rifabutin",12.3 µM
same,Fold increase in potency,"[3]; with vs without Rifabutin, SK-OV3",>2.6 fold
"CC(=O)O[C@H]1C(=O)[C@@]2(C)[C@H]([C@H](OC(=O)c3ccccc3)[C@]3(O)C[C@H](OC(=O)[C@H](O)[C@@H](NC(=O)c4ccccc4)c4ccccc4)C(C)=C1C3(C)C)[C@]1(OC(C)=O)CO[C@@H]1C[C@@H]2O [Paclitaxel, paclitaxel]",IC50,[14]; [15],0.4 µM
same,IC50,[14]; [16],0.2 µM
same,Fold increase in potency,[14]; with vs without Rifabutin,2 fold
same,IC50,myeloma RPMI 8226; [15],1 µM
same,IC50,myeloma RPMI 8226; [16],0.89 µM
same,Fold increase in potency,myeloma RPMI 8226; with vs without Rifabutin,1.1 fold

# — US20150017673A1, “COMPOSITIONS AND METHODS FOR DRUG-SENSITIZATION OR INHIBITION OF A CANCER CELL” (priority 2012, published 2015)
